Reference: article PMC4352019, “Bioactivity-Guided Fractionation of an Antidiarrheal Chinese Herb Rhodiola kirilowii (Regel) Maxim Reveals (-)–Epicatechin-3-Gallate and (-)–Epigallocatechin-3-Gallate as Inhibitors of Cystic Fibrosis Transmembrane Conductance Regulator” (PLoS ONE, 2015)

Target: T1, Cystic fibrosis transmembrane conductance regulator (CFTR) (Homo sapiens, UniProt P13569)
T1 construct: human wild-type CFTR stably expressed in FRT cells
Experiment: YFP-H148Q iodide influx fluorescence assay in CFTR-expressing FRT cells; supported by short-circuit current in rat colonic mucosa
Assay type: cell-based

T1 sequence (P13569 whole entry): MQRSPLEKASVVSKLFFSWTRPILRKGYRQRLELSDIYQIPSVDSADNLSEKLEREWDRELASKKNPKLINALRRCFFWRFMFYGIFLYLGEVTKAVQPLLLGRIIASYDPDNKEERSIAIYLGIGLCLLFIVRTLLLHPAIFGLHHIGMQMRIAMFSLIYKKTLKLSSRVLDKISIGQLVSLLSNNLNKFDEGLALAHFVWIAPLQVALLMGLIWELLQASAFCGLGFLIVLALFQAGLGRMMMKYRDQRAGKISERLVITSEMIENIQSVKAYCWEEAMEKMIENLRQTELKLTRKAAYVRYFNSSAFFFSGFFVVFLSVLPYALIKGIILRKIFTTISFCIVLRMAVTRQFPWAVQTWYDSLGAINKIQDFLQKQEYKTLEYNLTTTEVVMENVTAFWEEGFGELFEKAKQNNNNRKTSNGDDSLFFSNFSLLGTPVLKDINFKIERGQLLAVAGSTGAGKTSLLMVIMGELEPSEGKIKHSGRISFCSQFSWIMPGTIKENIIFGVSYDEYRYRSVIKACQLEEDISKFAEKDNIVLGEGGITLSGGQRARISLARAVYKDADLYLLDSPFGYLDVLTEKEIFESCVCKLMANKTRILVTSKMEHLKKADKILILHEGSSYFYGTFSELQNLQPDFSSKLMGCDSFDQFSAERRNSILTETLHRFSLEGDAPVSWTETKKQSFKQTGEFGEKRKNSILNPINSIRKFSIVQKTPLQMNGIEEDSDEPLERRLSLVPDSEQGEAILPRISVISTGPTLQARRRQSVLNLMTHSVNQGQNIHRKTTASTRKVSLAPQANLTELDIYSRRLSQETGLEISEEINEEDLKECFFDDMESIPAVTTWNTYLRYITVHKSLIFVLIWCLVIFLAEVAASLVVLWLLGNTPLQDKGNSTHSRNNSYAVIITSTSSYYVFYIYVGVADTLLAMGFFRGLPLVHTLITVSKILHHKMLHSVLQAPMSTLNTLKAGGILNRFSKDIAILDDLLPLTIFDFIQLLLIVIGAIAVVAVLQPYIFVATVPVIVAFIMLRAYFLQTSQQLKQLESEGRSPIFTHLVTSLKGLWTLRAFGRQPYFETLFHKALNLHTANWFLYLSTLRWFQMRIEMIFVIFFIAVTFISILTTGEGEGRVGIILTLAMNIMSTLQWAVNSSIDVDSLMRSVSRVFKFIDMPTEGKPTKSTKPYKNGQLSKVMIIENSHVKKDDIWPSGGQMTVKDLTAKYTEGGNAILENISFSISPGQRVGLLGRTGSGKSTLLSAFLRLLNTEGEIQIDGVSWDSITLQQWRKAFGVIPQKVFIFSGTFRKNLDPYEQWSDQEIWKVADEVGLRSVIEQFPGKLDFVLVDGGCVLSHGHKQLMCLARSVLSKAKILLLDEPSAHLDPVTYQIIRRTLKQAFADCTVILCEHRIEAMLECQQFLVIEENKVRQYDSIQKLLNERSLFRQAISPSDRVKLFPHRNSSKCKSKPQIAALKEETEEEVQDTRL

O=C(O[C@@H]1Cc2c(O)cc(O)cc2O[C@@H]1c1cc(O)c(O)c(O)c1)c1cc(O)c(O)c(O)c1 [C2, (-)–epigallocatechin-3-gallate]
IC50: ~100 µM
